Source: patent publication US5668136A, “Trisubstituted benzene derivatives, composition and methods of treatment” (priority 1990, dated 1997)

Tests used:
[1] = target: T1, ACAT (Oryctolagus cuniculus, UniProt G1SFD9); experiment: ACAT-inhibitory activity (in-vitro test, esterification of cholesterol with oleoyl-CoA, microsome of the small intestine of a rabbit); assay type: biochemical
T1 construct: by using the microsome of the small intestine of a rabbit as an enzyme source; from tissue; host or cells: rabbit small intestine, microsomes
T1 sequence (G1SFD9 1-524): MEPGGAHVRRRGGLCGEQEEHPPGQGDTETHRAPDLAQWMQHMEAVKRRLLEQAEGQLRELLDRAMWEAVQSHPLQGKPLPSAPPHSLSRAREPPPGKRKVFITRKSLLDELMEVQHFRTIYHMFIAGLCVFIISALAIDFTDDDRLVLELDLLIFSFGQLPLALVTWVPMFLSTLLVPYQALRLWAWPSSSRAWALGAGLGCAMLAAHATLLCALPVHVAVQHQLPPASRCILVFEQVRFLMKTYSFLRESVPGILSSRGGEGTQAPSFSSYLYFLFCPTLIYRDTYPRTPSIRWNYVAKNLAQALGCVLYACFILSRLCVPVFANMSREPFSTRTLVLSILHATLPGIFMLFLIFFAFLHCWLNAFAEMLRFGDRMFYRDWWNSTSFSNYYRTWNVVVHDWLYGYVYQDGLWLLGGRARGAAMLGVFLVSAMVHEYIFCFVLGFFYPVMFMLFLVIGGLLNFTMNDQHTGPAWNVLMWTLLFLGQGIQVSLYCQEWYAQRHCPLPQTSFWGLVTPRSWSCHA
Method: Representative compounds according to the present invention were examined for ACAT-inhibitory activity according to the in-vitro test proposed in Journal of Lipid Research, vol.
The inhibitory activity of a test compound against esterification or acylation of cholesterol with oleoyl CoA or acyl-CoA was evaluated by using the microsome of the small intestine of a rabbit as an enzyme source and determining the amount of a radioisotope-labeled cholesterol oleate made from a radioisotope-labeled oleoyl-CoA and (free) cholesterol.

[2] = One week toxic study in rats; assay type: in vivo, Sprague-Dawley rats; conditions: oral, 100 mg/kg daily for one week; for toxicity (overall finding of one week study): same condition
Method: The compound was orally given to animals at daily does of 100 mg/kg for one week.

[3] = In-vivo test: serum cholesterol level in hypercholesterolemic rats; set-up: species or system male Sprague-Dawley rat; conditions: oral, once a day, 10 mg per kg; food containing 1% of cholesterol for 2 days
Method: A male Sprague-Dawley rat was made to get hypercholesterolemia by feeding with food containing 1% of cholesterol for 2 days. A compound of the present invention (compound of Example 1, 54, 17 or 64) was orally administered to the rat once a day in a dose of 10 mg per kg of the weight.

| Compound | IC50 [1] [nM] | toxicity (overall finding of one week study) [2] | lowering of serum cholesterol level [3] | toxicological symptom during the administration [2] |
| --- | --- | --- | --- | --- |
| CCCCCNC(=O)Nc1c(OCCCn2cnc(-c3ccccc3)c2C)cccc1N(C)C [Example 1, N-[6-N,N-Dimethylamino-2-{3-(5-methyl-4-phenyl-1H-imidazol-1-yl)propoxy}]phenyl-N'-pentylurea] | 43 | no toxic substances | effectively lowered | – |
| CCCCNC(=O)Nc1c(C)cccc1OCCCn1cnc(-c2ccccc2)c1C(C)C [Example 80, N-[6-Methyl-2-[3-{5-(1-methylethyl)-4-phenyl-1H-imidazol-1-yl}propoxy]]phenyl-N'-butylurea] | 88 | no toxic substances | – | – |
| CCCCNC(=O)Nc1c(C)cccc1OCCCn1cnc(-c2ccccc2)c1CC [Example 81, N-[6-Methyl-2-{3-(5-ethyl-4-phenyl-1H-imidazol-1-yl)-propoxy}]phenyl-N'-butylurea] | – | no toxic substance | – | No toxicological sympton was observed |
| CCCCCCNC(=O)Nc1c(OCCCn2cnc(-c3ccccc3)c2)cccc1N(C)C [Example 17, N-[6-N,N-Dimethylamino-2-{3-(4-phenyl-1H-imidazol-1-yl)propoxy}]phenyl-N'-hexylurea] | 31 | no toxic substances | effectively lowered | – |
| CCCCCNC(=O)Nc1c(OCCCn2cnc(-c3ccccc3)c2)cccc1N(C)C [Example 5, N-[6-N,N-Dimethylamino-2-{3-(4-phenyl-1H-imidazol-1-yl)propoxy}]phenyl-N'-pentylurea] | – | no toxic substances | – | – |
| CCCCCNC(=O)Nc1c(OCCCN2CCN(c3ccccc3)CC2)cccc1N(C)C [Example 64, N-[6-N,N-Dimethylamino-2-{3-(4-phenylpiperazin-1-yl)propoxy}]phenyl-N'-pentylurea] | 17 | – | effectively lowered | – |
| CCCCNC(=O)Nc1c(OCCCn2cnc(-c3ccccc3)c2)cccc1N(C)C [Example 2, N-[6-N,N-Dimethylamino-2-{3-(4-phenyl-1H-imidazol-1-yl)propoxy}]phenyl-N'-butylurea] | – | no toxic substances | – | – |
| CCCCCNC(=O)Nc1c(C)cccc1OCCCn1cnc(-c2ccccc2)c1Cl [Example 93, N-[6-Methyl-2-{3-(5-chloro-4-phenyl-1H-imidazol-1-yl)-propoxy}]phenyl-N'-pentylurea] | 49 | – | – | – |
| CCCCCNC(=O)Nc1c(C)cccc1OCCCn1cnc(-c2ccccc2)c1C [Example 127, N-[6-Methyl-2-{3-(5-methyl-4-phenyl-1H-imidazol-1-yl)-propoxy}]phenyl-N'-pentylurea] | 100 | no toxic substances | – | – |
| CCCCNC(=O)Nc1c(C)cccc1OCCCn1cnc(-c2ccccc2)c1 [Example 54, N-[6-Methyl-2-{3-(4-phenyl-1H-imidazol-1-yl)propoxy}]-phenyl-N'-butylurea] | 48 | – | effectively lowered | – |
